Inconclusive results and toxic doses are left out. The calls were made as follows: active = survival T/C of 150% or more; inactive = T/C below 125% in these data.
System: CD2F1 mice, L1210 leukemia ip, survival T/C
Test: NCI In Vivo Anticancer Drug Screen. Data for tumor model L1210 Leukemia (intraperitoneal) in CD2F1 (CDF1) mice
Settings: higher = longer survival
Method in brief: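 Vehicle-treated tumor-bearing mice served as controls (C) for compound-treated mice (T). Reported figure is T divided by C.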

[1] = endpoint: mean survival time, dose: 400.0 mg/kg/injection, schedule: Q01DX001 (ip), vehicle: saline with Tween-80
[2] = endpoint: mean survival time, dose: 100.0 mg/kg/injection, schedule: Q01DX001 (ip), vehicle: saline with Tween-80
[3] = endpoint: mean survival time, dose: 200.0 mg/kg/injection, schedule: Q01DX001 (ip), vehicle: saline with Tween-80
[4] = endpoint: mean survival time, dose: 100.0 mg/kg/injection, schedule: Q04DX003 (ip), vehicle: saline with Tween-80
[5] = endpoint: mean survival time, dose: 200.0 mg/kg/injection, schedule: Q04DX003 (ip), vehicle: saline with Tween-80
[6] = endpoint: mean survival time, dose: 400.0 mg/kg/injection, schedule: Q04DX003 (ip), vehicle: saline with Tween-80
[7] = endpoint: median survival time, dose: 50.0 mg/kg/injection, schedule: Q01DX005 (ip), vehicle: water
[8] = endpoint: median survival time, dose: 100.0 mg/kg/injection, schedule: Q01DX005 (ip), vehicle: water
[9] = endpoint: median survival time, dose: 200.0 mg/kg/injection, schedule: Q01DX005 (ip), vehicle: water
[10] = endpoint: mean survival time, dose: 100.0 mg/kg/injection, schedule: Q01DX009 (ip), vehicle: saline with Tween-80
[11] = endpoint: mean survival time, dose: 200.0 mg/kg/injection, schedule: Q01DX009 (ip), vehicle: saline with Tween-80
[12] = endpoint: mean survival time, dose: 400.0 mg/kg/injection, schedule: Q01DX009 (ip), vehicle: saline with Tween-80
[13] = endpoint: mean survival time, dose: 100.0 mg/kg/injection, schedule: Q01DX001 (ip), vehicle: saline
[14] = endpoint: mean survival time, dose: 200.0 mg/kg/injection, schedule: Q01DX001 (ip), vehicle: saline
[15] = endpoint: mean survival time, dose: 400.0 mg/kg/injection, schedule: Q01DX001 (ip), vehicle: saline

Measured: T/C

c1coc(CNc2ncnc3c2ncn3Cc2ccco2)c1
inactive: endpoint: mean survival time, dose: 6.25 mg/kg/injection, schedule: Q01DX005 (ip), vehicle: other 96 % of control | endpoint: mean survival time, dose: 12.5 mg/kg/injection, schedule: Q01DX005 (ip), vehicle: other 90 % of control | endpoint: mean survival time, dose: 25.0 mg/kg/injection, schedule: Q01DX005 (ip), vehicle: other 90 % of control

O=C(Nc1ccccc1)OC1CCCCC1OC(=O)Nc1ccccc1 (stereo not drawn)
inactive: [1] 86 % of control

O=[N+]([O-])c1cc([N+](=O)[O-])c(Cl)s1
inactive: endpoint: mean survival time, dose: 12.5 mg/kg/injection, schedule: Q04DX003 (ip), vehicle: saline with Tween-80 92 % of control | endpoint: mean survival time, dose: 25.0 mg/kg/injection, schedule: Q04DX003 (ip), vehicle: saline with Tween-80 91 % of control | endpoint: mean survival time, dose: 50.0 mg/kg/injection, schedule: Q04DX003 (ip), vehicle: saline with Tween-80 88 % of control

CCCCOC(=O)c1ccc(OC(=O)NCCC)cc1
inactive: endpoint: mean survival time, dose: 50.0 mg/kg/injection, schedule: Q01DX009 (ip), vehicle: Klucel (hydroxypropylcellulose) (HPC) 102 % of control | endpoint: mean survival time, dose: 100.0 mg/kg/injection, schedule: Q01DX009 (ip), vehicle: Klucel (hydroxypropylcellulose) (HPC) 108 % of control | endpoint: mean survival time, dose: 200.0 mg/kg/injection, schedule: Q01DX009 (ip), vehicle: Klucel (hydroxypropylcellulose) (HPC) 100 % of control

CC(C)N=C(N)c1ccc(NC(=O)c2ccc(C(=O)Nc3ccc(C(N)=NC(C)C)cc3)cc2)cc1
inactive: endpoint: mean survival time, dose: 6.25 mg/kg/injection, schedule: Q01DX Z (ip), vehicle: water 93 % of control

COc1ccc(OC)c(C2N(C)CCCN2C)c1
inactive: endpoint: mean survival time, dose: 6.25 mg/kg/injection, schedule: Q01DX009 (ip), vehicle: saline sonified 90 % of control | endpoint: mean survival time, dose: 6.25 mg/kg/injection, schedule: Q04DX003 (ip), vehicle: saline sonified 100 % of control | endpoint: mean survival time, dose: 12.5 mg/kg/injection, schedule: Q01DX009 (ip), vehicle: saline sonified 88 % of control | endpoint: mean survival time, dose: 12.5 mg/kg/injection, schedule: Q04DX003 (ip), vehicle: saline sonified 101 % of control | endpoint: mean survival time, dose: 25.0 mg/kg/injection, schedule: Q01DX009 (ip), vehicle: saline sonified 103 % of control | endpoint: mean survival time, dose: 25.0 mg/kg/injection, schedule: Q04DX003 (ip), vehicle: saline sonified 100 % of control

OC(c1ccc(Cl)cc1)c1ccc(Cl)cc1
inactive: [2] 105 % of control | [3] 90 % of control | [1] 109 % of control

OCC(O)C1OC(SCc2ccccc2)C(O)C(O)C1O (stereo not drawn)
inactive: [4] 91 % of control | [5] 100 % of control | [6] 107 % of control

CC(C)NCC(O)c1ccc(O)c(O)c1.[Pt].c1ccc([PH+](c2ccccc2)c2ccccc2)cc1.c1ccc([PH+](c2ccccc2)c2ccccc2)cc1
inactive: endpoint: median survival time, dose: 10.0 mg/kg/injection, schedule: Q04DX003 (ip), vehicle: saline with Tween-80 108 % of control | endpoint: median survival time, dose: 20.0 mg/kg/injection, schedule: Q04DX003 (ip), vehicle: saline with Tween-80 105 % of control | endpoint: median survival time, dose: 40.0 mg/kg/injection, schedule: Q04DX003 (ip), vehicle: saline with Tween-80 105 % of control | endpoint: median survival time, dose: 50.0 mg/kg/injection, schedule: Q04DX003 (ip), vehicle: saline with Tween-80 101 % of control | endpoint: median survival time, dose: 80.0 mg/kg/injection, schedule: Q04DX003 (ip), vehicle: saline with Tween-80 102 % of control | endpoint: median survival time, dose: 100.0 mg/kg/injection, schedule: Q04DX003 (ip), vehicle: saline with Tween-80 98 % of control

O=C1C(c2ccccc2)=C(c2ccccc2)CC(c2ccccc2)C1c1ccccc1 (stereo not drawn)
inactive: [4] 97 % of control | [5] 97 % of control | [6] 95 % of control

CSc1ccc(NC(=O)CCl)cc1
inactive: [4] 91 % of control

Oc1cccc2ccccc12
inactive: [7] 95 % of control | [8] 95 % of control | [9] 101 % of control | endpoint: median survival time, dose: 400.0 mg/kg/injection, schedule: Q01DX005 (ip), vehicle: water 93 % of control

O=C1C=CC(=O)N1CO (tested in a mixture with another compound)
inactive: [10] 98 % of control | [11] 98 % of control | [12] 93 % of control

CCCCCC[Si]
inactive: endpoint: mean survival time, dose: 75.0 mg/kg/injection, schedule: Q01DX009 (ip), vehicle: saline with Tween-80 94 % of control | endpoint: mean survival time, dose: 150.0 mg/kg/injection, schedule: Q01DX009 (ip), vehicle: saline with Tween-80 94 % of control | endpoint: mean survival time, dose: 300.0 mg/kg/injection, schedule: Q01DX009 (ip), vehicle: saline with Tween-80 98 % of control

Cc1cc(C)c(S(=O)(=O)c2ccc(F)cc2)c(C)c1
inactive: [13] 100 % of control | endpoint: mean survival time, dose: 100.0 mg/kg/injection, schedule: Q04DX003 (ip), vehicle: saline 101 % of control | [14] 102 % of control | endpoint: mean survival time, dose: 200.0 mg/kg/injection, schedule: Q04DX003 (ip), vehicle: saline 102 % of control | [15] 100 % of control | endpoint: mean survival time, dose: 400.0 mg/kg/injection, schedule: Q04DX003 (ip), vehicle: saline 96 % of control

Oc1ccc(Br)cc1/C=N/c1nc(-c2ccccc2)cs1.Oc1ccc(Br)cc1/C=N/c1nc(-c2ccccc2)cs1.[Cu]
inactive: endpoint: mean survival time, dose: 12.5 mg/kg/injection, schedule: Q01DX001 (ip), vehicle: saline 87 % of control | endpoint: mean survival time, dose: 25.0 mg/kg/injection, schedule: Q01DX001 (ip), vehicle: saline 100 % of control | endpoint: mean survival time, dose: 50.0 mg/kg/injection, schedule: Q01DX001 (ip), vehicle: saline 91 % of control | [3] 93 % of control

CC1(C)N=C(N)N=C(N)N1c1ccc(CC(=O)Nc2ccc(S(=O)(=O)F)cc2)cc1
inactive: [13] 102 % of control | [14] 97 % of control | [15] 96 % of control

CC(O)CN1CCOCC1 (stereo not drawn)
inactive: [10] 101 % of control | [11] 105 % of control | [12] 100 % of control

Cc1cc2oc(=O)cc(O)c2c(=O)o1
inactive: [10] 96 % of control | [4] 94 % of control | [11] 96 % of control | [5] 97 % of control | [6] 98 % of control

O=NN(CCOS(=O)(=O)c1ccc(Br)cc1)C(=O)NC1CCCCC1
inactive: endpoint: mean survival time, dose: 100.0 mg/kg/injection, schedule: Q01DX001 (ip), vehicle: other 102 % of control | endpoint: mean survival time, dose: 200.0 mg/kg/injection, schedule: Q01DX001 (ip), vehicle: other 101 % of control

CCOP(=O)(OCC)C(C)c1ccccc1 (stereo not drawn)
inactive: [10] 100 % of control | [11] 94 % of control

CCC1(C)C(=O)CCC2C1CCC1(C)C(C(C)CCCC(C)C)CCC21 (stereo not drawn)
inactive: endpoint: mean survival time, dose: 100.0 mg/kg/injection, schedule: Q01DX001 (sc), vehicle: steriod suspending solution 101 % of control | endpoint: mean survival time, dose: 200.0 mg/kg/injection, schedule: Q01DX001 (sc), vehicle: steriod suspending solution 98 % of control | endpoint: mean survival time, dose: 400.0 mg/kg/injection, schedule: Q01DX001 (sc), vehicle: steriod suspending solution 118 % of control

CCCCCCCCCCCCCCC[N+]1(CC)CCCCC1
inactive: endpoint: mean survival time, dose: 0.09 mg/kg/injection, schedule: Q01DX009 (ip), vehicle: saline 102 % of control | endpoint: mean survival time, dose: 0.19 mg/kg/injection, schedule: Q01DX009 (ip), vehicle: saline 102 % of control | endpoint: mean survival time, dose: 0.39 mg/kg/injection, schedule: Q01DX009 (ip), vehicle: saline 115 % of control | endpoint: mean survival time, dose: 0.78 mg/kg/injection, schedule: Q01DX009 (ip), vehicle: saline 103 % of control

NC(C1SCCS1)C(O)C(O)C(O)CO (stereo not drawn)
inactive: [4] 101 % of control | [5] 104 % of control | [6] 98 % of control

CCOC(=O)C(=CC(C(=O)OCC)C(=O)OCC)C(=O)OCC
inactive: [2] 93 % of control | [3] 104 % of control | [1] 96 % of control

Cc1cn(C2CC(O)C(CO)O2)c(=O)nc1NCc1cccs1 (stereo not drawn)
inactive: endpoint: median survival time, dose: 12.5 mg/kg/injection, schedule: Q01DX005 (ip), vehicle: water 103 % of control | endpoint: median survival time, dose: 25.0 mg/kg/injection, schedule: Q01DX005 (ip), vehicle: water 105 % of control | [7] 106 % of control | [8] 101 % of control | [9] 103 % of control

NC1=NC(c2ccccc2)N(c2ccc(Cl)cc2)C(N)=N1 (stereo not drawn)
inactive: [2] 93 % of control | [3] 95 % of control

Source: PubChem BioAssay AID256 (DTP/NCI, 2004)
